Measurements from PMC13242511, “Disrupting Notch signalling by a small molecule inhibiting dihydroorotate dehydrogenase activity” (Scientific Reports, 2026).
Like-named read-outs stand apart in the source and are kept apart here.

Experiments:
Notch signalling = test: Notch reporter assay (12xCSL firefly luciferase / renilla luciferase, HEK293T Notch1ΔE reporter cell line clone #A1-11); assay type: cell-based; parameters: AUC Notch: scale not given here; settings: for Bottom (Emax): Emax indicated independent from assay constraints, in % (unit assumed); for AUC Notch: area under the 14-point dose-response curve, replicates averaged
From the text: To identify novel Notch inhibitors in an unbiased manner, we generated a novel Notch reporter construct, which records the level of Notch signalling immediately downstream of receptor activation rather than further downstream in the signalling cascade, for example at the level of Hes and Hey proteins (Fig. 1B). […] The reporter construct carries piggy-bac sequences at both ends of the promoter-reporter cassette as well as cSH4 insulator elements to reduce transcriptional noise[21] and was transfected into HEK293T cells. To achieve a robust level of Notch receptor activity in the HEK293T reporter cell line and to confine the search for inhibitors to compounds affecting the receptor function and eliminating the need for ligand activation, a truncated ligand-independent version of the Notch1 receptor, mimicking an S2-cleaved Notch1 receptor (Notch1ΔE) and spontaneously activated by S3-cleavage[22] (Fig. 1C) was introduced into the cell line carrying the reporter construct (Fig. 1D). In addition, an HSV-TK-renilla luciferase plasmid was introduced into the cell line as an internal control for normalisation of the reporter expression (Fig. 1D).
A de novo Notch reporter construct, composed of six dimeric CSL binding sites linked to a basic b-globin promoter and followed by a firefly luciferase gene and a PEST degradation domain was synthesised (GeneArt). The construct was stably introduced into HEK293T cells, and zeocin (0.1 mg/ml) or Puromycin (0.05 mg/ml (ThermoFisher, cat #R25001, #A1113803) were used as selection markers. A clonal cell line (clone #A1) with robust renilla expression and enhanced firefly luciferase expression upon transient transfection of Notch1 ICD or Notch1ΔE constructs was selected, and a UB6 promoter-Notch1DE construct was stably introduced into this cell line using Blasticidin (0.1 mg/ml; ThermoFisher, cat #A1113903) as a selection marker. Stable cell lines were generated by serial dilution and only clonal colonies were selected for further evaluation. To measure luciferase reporter activity, cells were washed in cold PBS, detached, and collected in pre-warmed cell culture medium and centrifugated for five min at 200xg. The cell pellet was resuspended in medium, cells were counted, and 4,000 cells were seeded in each well of a white 384 well plate (Corning #3670) in 20 µl medium containing either DMSO or the GSI DAPT (N-[N-(3,5-Difluorophenacetyl)-L-alanyl]-S-phenylglycine t-butyl ester, Sigma-Aldrich, cat #565784-M) and incubated for 24 h. The efficacy of the reporter gene system was determined by monitoring the level of luciferase activation in the absence or presence of different amounts of DAPT in several cell clones. Luciferase activity was assessed using the dual-GLO luciferase detection kit from Promega (cat # E2920), following the manufacturer’s instructions. A minimum of two technical replicates were measured per clone using a SpectraMaxi3 plate reader (Molecular Devices). Reporter activity of different clones and in response to DAPT was assessed by normalising firefly (Notch activity) to renilla luciferase signals. Normalised signals of individual clones cultivated in DMSO were then compared to corresponding signals generated with DAPT-treated cells. The cell clone with the strongest signal to control ratio (DMSO to DAPT) was then selected for further exploration (clone #A1-11).
37,966 compounds were spotted by the compound center at SciLifeLab (https://www.scilifelab.se/) on a total of 120 plates (Greiner #781080) at a fixed concentration of 10 µM and the screening process spanned five consecutive sessions. The layout of each plate contained one column for DMSO and one for DAPT controls to determine the quality and reliability of the data. DAPT controls were spotted at 10 µM and DMSO was spotted in an equimolar volume. In addition, plates spotted with only DMSO were utilized to investigate the impact of plate effects before and after each session. […]

γ-secretase complex = γ-secretase complex (Homo sapiens, UniProt P49768); test: APP-C99 counter assay (GSI reporter assay); assay type: cell-based; parameters: AUC APP: scale not given here; settings: for Hill-slope / curve fit information: 14p APP assay DR; for AUC APP: area under the 14-point dose-response curve, replicates averaged
Description: To this end, we used a previously established reporter gene-based GSI assay (APP-C99) (Fig. 3A), which measures γ-secretase activity through cleavage of amyloid precursor protein (APP), another protein processed by the γ-secretase complex[24]
Plasmids for APP and luciferase are described in[24] and the renilla plasmid described above generated for this project was used to normalize firefly values. 24 h post transfection cells were seeded on compound plates and cells were cultivated for 24 h before luciferase signals were read, as described.
Two-fold concentrations of compounds were diluted in 10 µl cell culture medium and brought to one-fold by seeding 10 µl containing 4000 cells of the respective cell type on each well of a 384-well plate, as described above. Analogous to the previous assays, all plates contained one DMSO and DAPT control column with the Notch reporter cell line (#A1-11) and a DMSO only and Notch inhibitor control plate was read before the measuring the screening plates. In addition, DAPT and DMSO were spotted in a dose response fashion, and a minimum of four replicates were read. Dose-responses of compounds were recorded in triplicates for each concentration reading out the dual luciferase reporters, as described above. Dose response assays were read together in one session. To measure compound effects, the different assays dose–response curves were fitted using the log(inhibitor) vs. response – Variable slope (model: Y = Bottom + (Top–Bottom)/(1 + 10^((LogIC50-X)*HillSlope)) equation.
A DMSO plate was read before measuring luciferase activity of compound spotted plates. APP firefly luciferase reporter assays were read with a signal integration time of 0.1 s, instead of 0.5 s used for the Notch reporter to reduce signal overlap between wells. […] The area-under-the-curve (AUC) was calculated on dose–response curves using Graphpad Prism.

[1] = Homo sapiens, HEK-293T, 14-point dose-response, Fig. 4, read-out: approximated IC50, Notch reporter assay
[2] = Homo sapiens, HEK-293T, 14p Notch assay DR, bottom constrained to Emax of positive control DAPT, read-out: approximated IC50
[3] = Homo sapiens, HEK-293T, 14p Notch assay DR, log10 value, bottom constrained to Emax of positive control DAPT, read-out: approximated LogIC50 (converted)
[4] = bottom constrained to Emax of positive control LY-411575

SMILES | Bottom (Emax) (Notch signalling; 14p Notch assay DR) | IC50 (Notch signalling; [1]) | IC50 (Notch signalling; [2]) | IC50 (Notch signalling; [3]) | AUC Notch (Notch signalling) | Hill-slope (γ-secretase complex; [4]) | AUC APP (γ-secretase complex) | curve fit information (γ-secretase complex; [4]) | further results
COc1ccc2[nH]c3c(c2c1)CCOC31CCN(Cc2ccccc2-c2ccccc2)CC1 [CBK040114] | 45.9 | 1.4 µM | 1.3 µM | 1.26 µM | 576.0 | 0.0153 | 713.8 |  | 
COC(=O)c1cccc(N2C(=O)c3ccc(Oc4cccc(NC(C)=O)c4)cc3C2=O)c1 [CBK033640] | 91.5 |  |  |  | 399.0 | 0.0705 | 553.6 |  | 
Cc1ccc2cc(C(=O)NC(C)c3cnn(C)c3C)[nH]c2c1 (centres unmarked) [CBK246728] |  | > 5 µM | > 5 µM | > 5 µM | 605.0 |  | 720.8 | IC50 indeterminate | 
COc1cccc(CNc2ccc(N3CCOCC3)cc2)c1OCc1ccccc1F [CBK074406] |  |  | 3.5 µM | 3.16 µM | 518.0 | 0.0527 | 758.8 |  | IC50 (Notch signalling; Homo sapiens, HEK-293T, 14p Notch assay DR, averaged when replicate measurements were available, read-out: averaged IC50s): 3.5 µM; IC50 (Notch signalling; Homo sapiens, HEK-293T, 14p Notch assay DR, bottom constrained to Emax of positive control RO4929097, read-out: approximated IC50): 3.5 µM; IC50 (Notch signalling; Homo sapiens, HEK-293T, 14p Notch assay DR, log10 value, bottom constrained to Emax of positive control RO4929097, read-out: approximated LogIC50 (converted)): 3.16 µM; activity at 10 µM (Notch signalling; Homo sapiens, HEK-293T, 10 µM, primary screen, 24 h, unit from Fig. 2 legend, read-out: Primary screen at 10 µM (Notch reporter signal)): 56.4%; activity at 10 µM (Notch signalling; Homo sapiens, HEK-293T, 10 µM, three-dose confirmation screen, unit from Fig. 2 legend, read-out: Hit confirmation at 10 µM (Notch reporter signal)): 68%; activity at 10 µM (Notch signalling; Homo sapiens, HEK-293T, 10µM, 3-point DR confirmation screen, Notch reporter assay, read-out: inhibitor ratio in % of DMSO in 3 point DR): 68%; activity at 10 µM (Notch signalling; Homo sapiens, HEK-293T, 10 µM, sheet conf vs counter 10 µM, same values as 3-point DR confirmation screen, read-out: Confirmation screen): 68%; activity at 25 µM (Notch signalling; Homo sapiens, HEK-293T, 25µM, 3-point DR confirmation screen, Notch reporter assay, read-out: inhibitor ratio in % of DMSO in 3 point DR): 66.7%; activity at 25 µM (Notch signalling; Homo sapiens, HEK-293T, 25 µM, Notch reporter 3-point dose-confirmation assay, sheet "conf vs counter 25 µM", read-out: Confirmation screen): 66.7%; activity (Notch signalling; Homo sapiens, HEK-293T, 1,25µM, 3-point DR confirmation screen, Notch reporter assay, read-out: inhibitor ratio in % of DMSO in 3 point DR): 98.6%; Hill-slope (γ-secretase complex; bottom constrained to Emax of positive control CB-103): 0.00965; remaining activity at 10 µM (γ-secretase complex; 24 h, 10µM, APP-C99 counter assay, read-out: 3p-DR in % of DMSO counter): 153%; remaining activity at 25 µM (γ-secretase complex; 24 h, 25µM, APP-C99 counter assay, read-out: 3p-DR in % of DMSO counter): 158%; remaining activity at […] (γ-secretase complex; 24 h, 1,25µM, APP-C99 counter assay, read-out: 3p-DR in % of DMSO counter): 102%
Cc1ccccc1CN1CCC2(CC1)OCCc1c2[nH]c2ccc(F)cc12 [CBK040334] | ~ 28,93 | > 5 µM | 8.9 µM | 7.94 µM | 607.0 | 0.00509 | 704.0 | IC50 indeterminate | 
